Experimental data as given in PMC11653107, “Development of a UPLC-MS/MS method for the determination of sulfatinib and its no interaction with myricetin in rats” (Frontiers in Pharmacology, 2024).
Read-outs that look alike come from different tables or passages of the source.

What was measured:
[1] = Stability of sulfatinib in rat plasma QCs under storage and processing conditions; conditions: analyzer 10°C for 4 h, −80°C for 3 weeks, room temperature for 3 h, three freeze-thaw cycles; QCs 2, 800, 1,600 ng/mL
Protocol: The stability was investigated by repeating the assay five times under different storage conditions for three rat plasma QCs (2, 800 and 1,600 ng/mL). The conditions included stability in the analyzer (4 h, 10°C), long-term storage ([…], 3 weeks), short-term storage (3 h, room temperature) and freeze-thaw cycles (three complete times).

[2] = design: method as in Li et al., 2020a; conditions: healthy subjects, single oral intake of 300 mg; ref Li et al., 2020a; cited from earlier work
[3] = Pharmacokinetics of sulfatinib in rats, DDI study with myricetin (UPLC-MS/MS of plasma); format: in vivo, Sprague-Dawley (SD) rats
Protocol: In the present assay, a Waters Xevo TQS triple quadrupole tandem mass spectrometer (Milford, MA, United States), connected to a Waters Acquity UPLC I class system (Milford, MA, United States) was applied in the method. The parameters of mass spectrometry were determined as follows before analysis: capillary voltage 2.0 kV, desolvation gas 1000 L/h, collision gas 0.15 mL/min, desolvation temperature 600°C and conical gas 150 L/h. Seperations of sulfatinib and IS were done on an Acquity UPLC BEH C18 (2.1 mm × 50 mm, 1.7 µm) set at 40°C. The autosampler used to analyze all samples was held at 10°C. The measurements were conducted using a multiple reaction monitoring (MRM) scanning mode with an electrospray ionization (ESI) source in positive ion mode. At a flow rate of 0.40 mL/min, the mobile phase was consisted of acetonitrile (A) and 0.1% formic acid aqueous solution (B), with a linear gradient scheme as follows: 0–0.5 min, A/B = 10/90%; 0.5–1.0 min, A/B = 90/10%; 1.0–1.4 min, A/B = 90/10%; 1.4–1.5 min, A/B = 10/90%; 1.5–2.0 min, A/B = 10/90%. The parameters optimized for mass spectrometry of sulfatinib and IS included cone voltages of 20 V and 30 V, and collision energies of 25 eV and 28 eV, respectively. The parent and daughter ions of sulfatinib and IS were m/z 480.98 → 329.02 and m/z 426.87 → 369.84, respectively (as indicated in Table 1).
The protein was precipitated by mixing 300 µL of acetonitrile and 10 µL of IS working solution into 100 µL of plasma. After a full vortex for 2.0 min, the mixture was centrifuged at 4°C for 10 min (13,000 rpm). Afterwards, the supernatant of 100 µL was moved into a vial, with a 2 µL injected and analyzed by UPLC-MS/MS.
Ten male Sprague-Dawley (SD) rats for this experiment, weighting 200 ± 10 g, were purchased from the Experimental Animal Center of The First Affiliated Hospital of Wenzhou Medical University (Zhejiang, China). Prior to the start of the investigation, all rats were domesticated under laboratory conditions for 1 week to minimize their suffering. The animals were kept in an appropriate environment (temperature, humidity, light conditions, freely available food and water). The experimental process of the animals was strictly adhered to the regulations for the care and use of laboratory animals as reviewed and approved by the Ethics Committee of The First Affiliated Hospital of Wenzhou Medical University (Wenzhou, China). The preparation of sulfatinib for gavage was carried out using 0.5% carboxymethylcellulose sodium (CMC-Na) solution. Half an hour after the administration of either myricetin or the same dose of 0.5% CMC-Na solution, 10 rats were simultaneously administered orally with sulfatinib (30 mg/kg). At 0.25, 0.5, 0.75, 1, 1.5, 2, 3, 4, 6, 8, 12, 24, 48 h, approximately 0.3 mL of blood was obtained from the tail vein of SD rats and transferred into heparinized polyethylene tubes. A 100 µL of plasma was obtained by centrifuging the blood at 13,000 rpm for 8 min and stored at −80°C for sample treatment.
Origin 9.0 (Originlab Inc., Northampton, MA, United States) was used in this experiment to plot the mean concentration of sulfatinib versus time in plasma. DAS software (Drug and Statistics, Version 3.0, China) was applied to fit the non-compartmental model of sulfatinib, and the main pharmacokinetic parameters of sulfatinib were obtained. Pharmacokinetics were compared for each group using SPSS software (version 24.0, Chicago, United States, SPSS Inc.) using the independent samples t-test. At p < 0.05, the difference was significant.

[4] = cited from earlier work
[5] = test system: cytochrome P450 3A4 (CYP3A4); design: method as in Li et al., 2020b; conditions: in vitro; ref Li et al., 2020b; cited from earlier work
CYP3A4 = test system: CYP3A4; design: method as in Li et al., 2018; conditions: studies in rats; ref Li et al., 2018; cited from earlier work
CYP2C9 = test system: CYP2C9; design: method as in Li et al., 2018; conditions: studies in rats; ref Li et al., 2018; cited from earlier work
[6] = male, Sprague-Dawley, rat, in vivo, po, 30 mg/kg

Cc1cc2cc(Oc3ccnc(Nc4cccc(CS(=O)(=O)NCCN(C)C)c4)n3)ccc2[nH]1 [Sulfatinib]
stability in rat plasma [1]: satisfied
AUC [2]: 2670 ng·h/mL
Cmax [2]: 205 ng/mL
t1/2 [2]: 17.1 h
time to Cmax [2]: approximately 2 h
AUC0→t [3, 6]: 9,168.6 ± 2,531.4 ng/mL·h
AUC0→∞ [3, 6]: 9,171.6 ± 2,532.4 ng/mL·h
CLz/F [3, 6]: 58.3 ± 18.3 mL/min/kg
Tmax [3, 6]: 4.4 ± 0.9 h
AUC(0-t) ([3]; male, Sprague-Dawley, rat, in vivo, po, 30 mg/kg, AUC0→t): 9250 ng·h/mL
AUC(0-inf) ([3]; male, Sprague-Dawley, rat, in vivo, po, 30 mg/kg, AUC0→∞): 9260 ng·h/mL
CL/F ([3]; male, Sprague-Dawley, rat, in vivo, po, 30 mg/kg, CLz/F): 55 mL/min/kg
Cmax ([3]; male, Sprague-Dawley, rat, in vivo, po, 30 mg/kg, Cmax): 1040 ng/mL
Tmax ([3]; male, Sprague-Dawley, rat, in vivo, po, 30 mg/kg, Tmax): 3.4 ± 1.7 h
half-life ([3]; male, Sprague-Dawley, rat, in vivo, po, 30 mg/kg, t1/2): 3.64 h
AUC ([3]; rat, in vivo, po, 30 mg/kg): 8970 ng·h/mL
time to Cmax ([3]; rat, in vivo, po, 30 mg/kg): approximately 3.8 h
serum level of the original drug ([4]; after oral administration, ref Li et al., 2020b): about 40.3%
fecal excretion ([4]; excretion route mainly fecal, ref Lu et al., 2024, Xu et al., 2017, Li et al., 2020a): 88%
enzyme mediating the metabolism [5]: major enzyme mediating the metabolism

O=c1c(O)c(-c2cc(O)c(O)c(O)c2)oc2cc(O)cc(O)c12 [myricetin, Myricetin]
inhibition of CYP3A4 (CYP3A4): inhibited
effect of myricetin on AUC0→∞ and Cmax of sulfatinib ([3]; rats, 50 mg/kg myricetin orally half an hour before 30 mg/kg sulfatinib, P > 0.05): no significant effect
inhibition of CYP2C9 (CYP2C9): inhibited
